According to publication PMC5447021, “TNF Lectin-Like Domain Restores Epithelial Sodium Channel Function in Frameshift Mutants Associated with Pseudohypoaldosteronism Type 1B” (Frontiers in Immunology, 2017):
Entries after “also recorded” stand apart in the source; their conditions may differ.

How the values were obtained:
Type in all cases: cell-based, human
[1] = system: α-ENaC frameshift PHA1B mutants; assay: Whole-cell patch clamp, all α-ENaC PHA1B frameshift mutants + WT βγ; conditions: for Restoration of current by solnatide (words): all 10 frameshift mutants, 200 nM solnatide (Figure 4B), n = 3–11
Description: (§1) Point mutations of α-, β-, γ- and δ-hENaC and PHA1B frameshift mutations of α-hENaC were prepared with the QuikChange Lightning Site-Directed Mutagenesis Kit (Agilent Technologies, CA, USA). Mutagenic primers were designed individually with the Primer Design Program provided on the producer’s website or for the frameshift mutations the same base changes as reported in patients (see Table 2) were performed. Primers were ordered from Sigma-Aldrich, Vienna, Austria.
(§2) HEK-293 cells were transfected 1 day after cell seeding using X-tremeGENE HP DNA transfection reagent (Roche Diagnostics, Mannheim, Germany) according to the manufacturer’s protocol. A set of WT or mutant αβγ- or δβγ-hENaC, or α-, β-, γ-, or δ-hENaC alone was used, and the ratio of DNA to transfection reagent was 1:3. The expression was highest 48–72 h after transfection.
Electrophysiological experiments were performed as described in detail by Shabbir et al. ([16]). […] Currents were recorded with the patch clamp method in the whole-cell mode. The chamber contained 1 ml of the bath solution of the following composition (in mM): 145 NaCl, 2.7 KCl, 1.8 CaCl2, 2 MgCl2, 5.5 glucose, and 10 HEPES, adjusted to pH 7.4 with 1 M NaOH solution. Micropipettes were pulled from thin-walled borosilicate glass capillaries (Harvard Apparatus, Holliston, MA, USA) with a DMZ Zeitz Puller to obtain electrode resistances ranging from 2 to 5 MΩ. The pipette solution contained (in millimolars): 135 potassium methane sulfonate, 10 KCl, 6 NaCl, 1 Mg2ATP, 2 Na3ATP, 10 HEPES, and 0.5 EGTA, adjusted to pH 7.2 with 1 M KOH solution. Chemicals for pipette and bathing solutions were supplied by Sigma-Aldrich (Vienna, Austria). Electrophysiological measurements were carried out with an Axopatch 200B patch clamp amplifier (Axon Instruments, CA, USA). Capacity transients were canceled, and series resistance was compensated. Whole-cell currents were filtered at 5 kHz and sampled at 10 kHz. Data acquisition and storage were processed directly to a PC equipped with pCLAMP 10.2 software (Axon Instruments, CA, USA). […]

[2] = system: αE272fs; assay: Membrane abundance of αE272fs; conditions: 200 nM, relative to WT control (=1), own control 0.35 ± 0.06, p < 0.001 vs control
Description: Cell surface biotinylation was performed as previously described ([26]). In brief, A549 cells or transiently transfected HEK-293 cells were grown in 10 cm dishes in 37°C, 5% CO2 incubator in DMEM medium supplemented with 5% FBS. […] Medium was aspirated, and then cells were washed twice with 10 ml ice-cold phosphate-buffered saline (PBS), covered with 2.5 mg EZ-Link Sulfo-NHS-SS-Biotin (Thermo Scientific, Rockford, USA), dissolved in 10 ml ice-cold PBS, and incubated at 4°C with gentle agitation for 30 min. Fifty milliliters of quenching solution were added to cells; then cells were scraped in solution and transferred to fresh 50 ml tube. Cell suspension was centrifuged at 500 × g for 3 min. Supernatant was discarded, and 5 ml of Tris-buffered saline (TBS) was added to the cell pellet. The cell pellet was resuspended and centrifuged at 500 × g for 3 min. Supernatant was discarded and cell pellet was resuspended in lysis buffer containing protease inhibitor cocktail (10 µM pepstatin A, 10 µM phenylmethylsulfonyl fluoride, and 10 µM leupeptin) and transferred to fresh 1.5 ml centrifuge tube. Cell pellet was then homogenized on ice by ultrasonication using 1 s bursts and incubated on ice for at least 30 min. Intact cells and nuclei were pelleted by centrifugation at 10,000 × g for 2 min under cooling conditions. […] Exposed films were scanned and quantified using ImageJ (NIH, MD, USA). […]

[3] = system: αE272fs (co-expressed with βγ-ENaC); assay: Whole-cell patch clamp, αE272fs + WT βγ; conditions: read-out: EC50, solnatide, HEK-293, whole-cell, -100 mV, n = 5, p < 0.001 vs WT
Description: as §1, §2
(§3) Electrophysiological experiments were performed as described in detail by Shabbir et al. ([16]). […] Currents were recorded with the patch clamp method in the whole-cell mode. The chamber contained 1 ml of the bath solution of the following composition (in mM): 145 NaCl, 2.7 KCl, 1.8 CaCl2, 2 MgCl2, 5.5 glucose, and 10 HEPES, adjusted to pH 7.4 with 1 M NaOH solution. Micropipettes were pulled from thin-walled borosilicate glass capillaries (Harvard Apparatus, Holliston, MA, USA) with a DMZ Zeitz Puller to obtain electrode resistances ranging from 2 to 5 MΩ. […]

[4] = system: αY447fs (co-expressed with βγ-ENaC); assay: Whole-cell patch clamp, αY447fs + WT βγ; conditions: read-out: EC50, solnatide, HEK-293, whole-cell, -100 mV, n = 7
Description: as §1, §2, §3

C[C@@H]1NC(=O)CNC(=O)[C@H](CCC(=O)O)NC(=O)[C@@H]2CCCN2C(=O)[C@H]([C@@H](C)O)NC(=O)[C@H](CCC(=O)O)NC(=O)[C@H](CCCNC(=N)N)NC(=O)[C@H](CCC(N)=O)NC(=O)CNC(=O)[C@@H](N)CSSC[C@@H](C(=O)O)NC(=O)[C@H](Cc2ccc(O)cc2)NC(=O)[C@H](Cc2c[nH]c3ccccc23)NC(=O)[C@@H]2CCCN2C(=O)[C@H](CCCCN)NC(=O)[C@H](C)NC(=O)[C@H](CCC(=O)O)NC1=O [solnatide, L-cysteine, L-cysteinylglycyl-L-glutaminyl-L-arginyl-L-α-glutamyl-L-threonyl-L-prolyl-L-α-glutamylglycyl-L-alanyl-L-α-glutamyl-L-alanyl-L-lysyl-L-prolyl-L-tryptophyl-L-tyrosyl-, cyclic (1→17)-disulfide]
Restoration of current by solnatide (words) [1]: up to or even higher than WT control current in absence of solnatide; also recorded: restored the amiloride-sensitive current in all these frameshift mutants to WT or higher levels | Restoration of current by solnatide (words) ([1]; listed as Solnatide): restored function in α-ENaC frameshift mutants to current density levels of wild type ENaC or higher | Concentration at which maximum current activation was reached ([1]; solnatide, frameshift mutants, HEK-293): 200 nM | Membrane abundance, solnatide 5 min ([2]; 5 min): 0.72 ± 0.03 | Membrane abundance, solnatide 10 min ([2]; 10 min): 0.64 ± 0.05 | EC50 [3]: 75.6 ± 5.4 nM | EC50 [4]: 57.2 ± 4.8 nM
